# Patent US20260184712A1, “Heterocyclic Compounds as ENT Inhibitors and Compounds for Use in the Treatment of Cancers” (iTeos Belgium SA, priority 2022, published 2026)
# Tested on: stimulated primary human T cells
# Test: T cell proliferation assay, Condition B (X-VIVO15, 2% HSA and 0.1% AAG)
# Format: cell-based
# Details: Homo sapiens, T-cell, 96 h; Condition B: X-VIVO15 medium containing HSA and α1-Acid Glycoprotein; anti-CD3/anti-CD28 beads, ATP, 4 days; CFSE-lo T cells
# Method: (§1) The goal of this study was to determine the potency of ENT1 inhibitors by measuring the rescued proliferation of stimulated primary human T cells incubated in the presence of 100 uM Adenosine triphosphate (ATP), in baseline conditions (condition A) or in the presence of various proteins known to bind small molecules (condition B).
# Condition B: X-VIVO15, 2% Human Serum Albumin (HSA) and 0.1% α-1-Acid Glycoprotein (AAG)
# (§2) Venous blood from healthy volunteers, all of whom signed an informed consent approved by the Ethics Committee (FOR—UIC—BV-050-01-01 ICF_HBS_HD Version 5.0), was obtained by ImmuneHealth (Centre Hospitalier Universitaire Tivoli, La Louviere, Belgium). Mononuclear cells were collected by density gradient centrifugation, using SepMate-50 tubes (StemCell Technologies, Grenoble, France) and Lymphoprep (Stemcell Technologies) according to the manufacturer's instructions. CD3+ T cells were isolated by immunomagnetic negative selection, using the EasySep Human T Cell Isolation Kit (StemCell Technologies) as per the manufacturer's instructions. CD3+ T cells were stored in heat inactivated FBS (hiFBS; Gibco, ThermoFisher Scientific, Merelbeke, Belgium) and 10% DMSO in liquid nitrogen.
# (§3) Purified human CD3+ T cells were thawed and washed once with RPMI1640 medium, UltraGlutamine (Lonza, Verviers, Belgium) containing 10% hiFBS. Cells were resuspended in PBS containing 10% hiFBS at 1×10^7 cells/ml. One volume of cells was combined with a matching volume of 2 μM CFSE solution in PBS, mixed well by pipetting, and incubated at room temperature for 5 minutes under rotation and protected from light. Excess CFSE was quenched by addition of PBS containing 10% hiFBS, and the cells were centrifuged (300×rcf, 7 minutes) and resuspended in X-VIVO15. Cells were again centrifuged and resuspended in X-VIVO15 for counting.
# (§4) Cells were resuspended at 1.6×10^6 cells/mL in X-VIVO15 medium (Condition A) or X-VIVO15 medium containing 4% (v/v) HSA (Sigma-Aldrich, Diegem, Belgium) and 0.2% (v/v) ai-Acid Glycoprotein (Sigma-Aldrich, Diegem, Belgium) (Condition B).
# (§5) […] of cell suspension (2×10^4 cells) was added to wells of sterile flat-bottom 384-well plates. Cells were activated by adding […] of anti-CD3 anti-CD28 coated microbeads (Dynabeads human T-activator CD3/CD28; Life Technologies, Paisley, UK) suspended in X-VIVO15 medium or X-VIVO15 medium containing 4% (v/v) HSA and 0.2% (v/v) ai-Acid Glycoprotein at a ratio of one microbead per two cells. Serial dilutions of the ENT1 inhibitors were conducted in X-VIVO15 medium and […] of the diluent was added to the wells. Cells were mixed by pipetting up and down and pre-incubated for 30 minutes in a 37° C. humidified tissue culture incubator with 5% CO2. After pre-incubation, cells were cultured in the presence or absence of ATP (Sigma-Aldrich) at a final concentration of […]. The final well volume was 50 μl in all cases. Experiments were performed in biological duplicates. Cells were mixed by pipetting up and down and incubated for 4 days in a 37° C. humidified tissue culture incubator with 5% CO2.
# (§6) Samples were run on a BD LSR Fortessa FACS machine (BD FACSDiva Software v9.0.1). Data were analyzed using FlowJo (BD, v10.7.1). T cell proliferation was determined by measuring the frequency of ‘CFSE^lo’ (i.e. CFSE-diluted).
# (§7) T cell proliferation data were analyzed using FlowJo software (Version 10.6.2). Dead cells and cellular debris were excluded on the basis of forward and side scatter profile and singlet cells were selected for further analysis.
# (§8) T cell proliferation was determined based on the percent CFSE^lo total T cells for each condition. The data were plotted on the y-axis against log molar (M) concentration of ENT1 inhibitors on the x-axis in GraphPad Prism (version 9.0.0). IC50 and IC90 values were generated with the ‘log(agonist) vs. response—Find ECanything(F))’ function with F constrained to 50 or 90, respectively. pICF values were generated by taking the −logECF values.
row,SMILES,IC50 [µM]
1,Cc1cc(COc2ncnc3c2ncn3[C@@H]2O[C@H](C)[C@@H](O)[C@H]2O)ccc1[N+](=O)[O-] [Compound 193],> 0.5
2,C[C@H]1O[C@@H](n2c(NC3CCS(=O)(=O)CC3)nc3c(OCc4ccc(OC(F)F)cc4)ncnc32)[C@H](O)[C@@H]1O [Compound 55],0.001 to 0.02
3,O=[N+]([O-])c1ccc(CCOc2ncnc3c2ncn3[C@@H]2O[C@H](COCCO)[C@@H](O)[C@H]2O)cc1 [Compound 203],> 0.5
4,C[C@H]1O[C@@H](n2c(NC3CCCC3)nc3c(N4CCc5ccc(C#N)cc5C4)ncnc32)[C@H](O)[C@@H]1O [Compound 153],0.02 to 0.5
5,C[C@H]1O[C@@H](n2c(NC3CCC(F)(F)CC3)nc3c(OCc4ccc([N+](=O)[O-])cc4)ncnc32)[C@H](O)[C@@H]1O [Compound 10],0.001 to 0.02
6,NC(=O)COC[C@H]1O[C@@H](n2cnc3c(OCCc4ccc([N+](=O)[O-])cc4)ncnc32)[C@H](O)[C@@H]1O [Compound 199],> 0.5
7,OCCOC[C@H]1O[C@@H](n2cnc3c(OCc4ccc(OC(F)F)cc4)nc(Cl)nc32)[C@H](O)[C@@H]1O [Compound 162],0.02 to 0.5
8,C[C@H]1O[C@@H](n2c(NCC3CCOC3)nc3c(OCc4ccc(C#N)cc4)ncnc32)[C@H](O)[C@@H]1O (stereo partly drawn) [Compound 108],0.02 to 0.5
9,COCCNc1nc2c(OCc3ccc([N+](=O)[O-])cc3)ncnc2n1[C@@H]1O[C@H](C)[C@@H](O)[C@H]1O [Compound 23],0.02 to 0.5
10,C[C@H]1O[C@@H](n2c(N)nc3c(N4CCc5ccc([N+](=O)[O-])cc5C4)ncnc32)[C@H](O)[C@@H]1O [Compound 145],0.02 to 0.5
11,CC(C)Nc1nc2c(OCc3ccc([N+](=O)[O-])cc3)ncnc2n1[C@@H]1O[C@H](C)[C@@H](O)[C@H]1O [Compound 25],0.001 to 0.02
12,C[C@H]1O[C@@H](n2c(NC3CCCC3)nc3c(OCc4ccccc4)ncnc32)[C@H](O)[C@@H]1O [Compound 5],0.02 to 0.5
13,C[C@H]1O[C@@H](n2c(NC3CCCC3)nc3c(OCc4ccc(OC(F)F)cc4)ncnc32)[C@H](O)[C@@H]1O [Compound 11],0.001 to 0.02
14,C[C@H]1O[C@@H](n2cnc3c(SCc4ccc(OC(F)F)cc4)ncnc32)[C@H](O)[C@@H]1O [Compound 176],> 0.5
15,COC(=O)[C@H]1O[C@@H](n2cnc3c(SCc4ccc([N+](=O)[O-])cc4)ncnc32)[C@H](O)[C@@H]1O [Compound 152],> 0.5

# Tested on: stimulated primary human T cells
# Test: T cell proliferation assay, Condition A (X-VIVO15)
# Format: cell-based
# Details: Homo sapiens, T-cell, 96 h; Condition A: X-VIVO15 medium; anti-CD3/anti-CD28 beads, ATP, 4 days; CFSE-lo T cells
# Method: as §1, §2, §3, §4, §5, §6, §7, §8
row,SMILES,IC50 [µM]
1,Cc1cc(COc2ncnc3c2ncn3[C@@H]2O[C@H](C)[C@@H](O)[C@H]2O)ccc1[N+](=O)[O-] [Compound 193],0.02 to 0.5
2,C[C@H]1O[C@@H](n2c(NC3CCS(=O)(=O)CC3)nc3c(OCc4ccc(OC(F)F)cc4)ncnc32)[C@H](O)[C@@H]1O [Compound 55],< 0.001
3,O=[N+]([O-])c1ccc(CCOc2ncnc3c2ncn3[C@@H]2O[C@H](COCCO)[C@@H](O)[C@H]2O)cc1 [Compound 203],0.001 to 0.02
4,C[C@H]1O[C@@H](n2c(NC3CCCC3)nc3c(N4CCc5ccc(C#N)cc5C4)ncnc32)[C@H](O)[C@@H]1O [Compound 153],< 0.001
5,C[C@H]1O[C@@H](n2c(NC3CCC(F)(F)CC3)nc3c(OCc4ccc([N+](=O)[O-])cc4)ncnc32)[C@H](O)[C@@H]1O [Compound 10],< 0.001
6,NC(=O)COC[C@H]1O[C@@H](n2cnc3c(OCCc4ccc([N+](=O)[O-])cc4)ncnc32)[C@H](O)[C@@H]1O [Compound 199],0.02 to 0.5
7,OCCOC[C@H]1O[C@@H](n2cnc3c(OCc4ccc(OC(F)F)cc4)nc(Cl)nc32)[C@H](O)[C@@H]1O [Compound 162],0.001 to 0.02
8,C[C@H]1O[C@@H](n2c(NCC3CCOC3)nc3c(OCc4ccc(C#N)cc4)ncnc32)[C@H](O)[C@@H]1O (stereo partly drawn) [Compound 108],0.001 to 0.02
9,COCCNc1nc2c(OCc3ccc([N+](=O)[O-])cc3)ncnc2n1[C@@H]1O[C@H](C)[C@@H](O)[C@H]1O [Compound 23],< 0.001
10,C[C@H]1O[C@@H](n2c(N)nc3c(N4CCc5ccc([N+](=O)[O-])cc5C4)ncnc32)[C@H](O)[C@@H]1O [Compound 145],0.001 to 0.02
11,CC(C)Nc1nc2c(OCc3ccc([N+](=O)[O-])cc3)ncnc2n1[C@@H]1O[C@H](C)[C@@H](O)[C@H]1O [Compound 25],< 0.001
12,C[C@H]1O[C@@H](n2c(NC3CCCC3)nc3c(OCc4ccccc4)ncnc32)[C@H](O)[C@@H]1O [Compound 5],0.001 to 0.02
13,C[C@H]1O[C@@H](n2c(NC3CCCC3)nc3c(OCc4ccc(OC(F)F)cc4)ncnc32)[C@H](O)[C@@H]1O [Compound 11],< 0.001
14,C[C@H]1O[C@@H](n2cnc3c(SCc4ccc(OC(F)F)cc4)ncnc32)[C@H](O)[C@@H]1O [Compound 176],0.001 to 0.02
15,COC(=O)[C@H]1O[C@@H](n2cnc3c(SCc4ccc([N+](=O)[O-])cc4)ncnc32)[C@H](O)[C@@H]1O [Compound 152],> 0.5

# Molecular target: T1, human ENT1 (Homo sapiens, UniProt Q99808)
# T1 construct: JAR cells expressing ENT1 were purchased from ATCC; host or cells: JAR cells
# T1 sequence (Q99808 1-456): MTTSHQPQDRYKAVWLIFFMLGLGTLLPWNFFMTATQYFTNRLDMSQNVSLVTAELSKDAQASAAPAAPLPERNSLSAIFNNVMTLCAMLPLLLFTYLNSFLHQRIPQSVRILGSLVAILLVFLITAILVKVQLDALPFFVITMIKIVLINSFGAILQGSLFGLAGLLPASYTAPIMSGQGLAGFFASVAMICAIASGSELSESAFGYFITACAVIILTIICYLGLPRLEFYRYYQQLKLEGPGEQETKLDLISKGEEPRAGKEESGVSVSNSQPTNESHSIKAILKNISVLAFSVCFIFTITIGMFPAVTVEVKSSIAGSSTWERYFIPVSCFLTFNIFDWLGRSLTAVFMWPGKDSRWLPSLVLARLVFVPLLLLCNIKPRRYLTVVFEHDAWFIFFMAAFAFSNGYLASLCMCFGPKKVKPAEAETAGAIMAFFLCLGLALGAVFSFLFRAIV
# Test: ENT1 binding assay (competition with Sahenta-DY647 on JAR cells)
# Details: competition with SAHENTA-DY647 binding; IC50 categorized; read-out: Binding Assay IC50
# Outline: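 Whole-cell competition on JAR cells (native ENT1): 50,000 cells pre-incubated 30 min at 4 °C with compound in HBSS/10 mM Hepes/0.1% BSA, then 100 nM Sahenta-DY647 added for 30 min at 4 °C. After washing, fluorescence (Ex 630/Em 670 nm) read; IC50 from sigmoidal fit, averaged as pIC50.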
row,SMILES,IC50 [µM]
1,Cc1cc(COc2ncnc3c2ncn3[C@@H]2O[C@H](C)[C@@H](O)[C@H]2O)ccc1[N+](=O)[O-] [Compound 193],0.02 to 0.5
2,O=[N+]([O-])c1ccc(CCOc2ncnc3c2ncn3[C@@H]2O[C@H](COCCO)[C@@H](O)[C@H]2O)cc1 [Compound 203],0.02 to 0.5
3,C[C@H]1O[C@@H](n2c(NC3CCC(F)(F)CC3)nc3c(OCc4ccc([N+](=O)[O-])cc4)ncnc32)[C@H](O)[C@@H]1O [Compound 10],0.001 to 0.02
4,NC(=O)COC[C@H]1O[C@@H](n2cnc3c(OCCc4ccc([N+](=O)[O-])cc4)ncnc32)[C@H](O)[C@@H]1O [Compound 199],0.02 to 0.5
5,OCCOC[C@H]1O[C@@H](n2cnc3c(OCc4ccc(OC(F)F)cc4)nc(Cl)nc32)[C@H](O)[C@@H]1O [Compound 162],0.001 to 0.02
6,C[C@H]1O[C@@H](n2c(NCC3CCOC3)nc3c(OCc4ccc(C#N)cc4)ncnc32)[C@H](O)[C@@H]1O (stereo partly drawn) [Compound 108],0.001 to 0.02
7,COCCNc1nc2c(OCc3ccc([N+](=O)[O-])cc3)ncnc2n1[C@@H]1O[C@H](C)[C@@H](O)[C@H]1O [Compound 23],0.001 to 0.02
8,C[C@H]1O[C@@H](n2c(NC3CCCC3)nc3c(OCc4ccccc4)ncnc32)[C@H](O)[C@@H]1O [Compound 5],0.001 to 0.02
9,C[C@H]1O[C@@H](n2cnc3c(SCc4ccc(OC(F)F)cc4)ncnc32)[C@H](O)[C@@H]1O [Compound 176],0.02 to 0.5
10,COC(=O)[C@H]1O[C@@H](n2cnc3c(SCc4ccc([N+](=O)[O-])cc4)ncnc32)[C@H](O)[C@@H]1O [Compound 152],0.001 to 0.02

# Other lines, results leading:
row,IC50 [µM],SMILES
1,< 0.001,C[C@H]1O[C@@H](n2c(NC3CCS(=O)(=O)CC3)nc3c(OCc4ccc(OC(F)F)cc4)ncnc32)[C@H](O)[C@@H]1O [Compound 55]
2,0.001 to 0.02,C[C@H]1O[C@@H](n2c(NC3CCCC3)nc3c(N4CCc5ccc(C#N)cc5C4)ncnc32)[C@H](O)[C@@H]1O [Compound 153]
3,< 0.001,C[C@H]1O[C@@H](n2c(N)nc3c(N4CCc5ccc([N+](=O)[O-])cc5C4)ncnc32)[C@H](O)[C@@H]1O [Compound 145]
4,< 0.001,CC(C)Nc1nc2c(OCc3ccc([N+](=O)[O-])cc3)ncnc2n1[C@@H]1O[C@H](C)[C@@H](O)[C@H]1O [Compound 25]
5,< 0.001,C[C@H]1O[C@@H](n2c(NC3CCCC3)nc3c(OCc4ccc(OC(F)F)cc4)ncnc32)[C@H](O)[C@@H]1O [Compound 11]
